From patent US20240115672A1, “TREATMENT OF AN IOP CONDITION” (THE RESEARCH FOUNDATION FOR THE STATE UNIVERSITY OF NEW YORK, priority 2021, published 2024) come the findings set out here.

Test [1] has as its system Mmp-2, Mmp-9, Mmp-13 mRNA in angle ring tissues. The experiment in a line: Mmp expression in TA and protein treated C57BL/6J eyes (Example 13). The conditions noted are these: TA + protein; compared to BSA treated controls; p<0.0001. It is filed as in vivo, mouse.
Test [2] concerns MMP-1, MMP-2, MMP-9, MMP-13, PLAT, PAI-1 mRNA. The test is described as follows: qRT-PCR gene expression in sheep TM and ciliary processes after tPA. The format is in vivo. From the text: Methods. Tissue Collection and Isolation of RNA. After animals were euthanized, eyes were immediately enucleated. Eyes were then opened anterior to the equator using a razor blade. The lens was removed from the anterior part, and the tissue was immersed in RNA stabilizing agent (RNAlater; Ambion, Carlsbad, CA) and placed at […] for transportation to the United States. Upon arrival in the United States, TM and ciliary processes (CP) were dissected on ice in the presence of RNA stabilizing agent as described previously. Dissected tissue was homogenized, and total RNA was extracted using TRIzol reagent (Gibco. Carlsbad, CA). Briefly, the tissue was homogenized in TRIzol, and chloroform was added to separate proteins from RNA. After centrifugation, the RNA-containing supernatant was aspirated. The RNA was precipitated with isopropanol, washed with 75% ethanol, treated with DNase, and column purified using a commercial kit (RNAeasy Mini Kit; Qiagen, Valencia, CA) in accordance with the manufacturer's instructions. RNA concentrations were determined with a spectrophotometer (Nanodrop; Thermo Scientific, Wilmington, DE) and the 260:280-nm absorbance ratio was calculated to determine RNA purity.
Quantitative Real-Time PCR (qRT-PCR) The RNA samples were reverse transcribed with random hexamers to cDNA using a reverse transcription kit (Quantitect; Qiagen) in accordance with the manufacturer's instructions. Quantitative RT-PCR was performed using a commercial kit (SYBR Green RT-PCR Reagents Kit; Applied Biosystems, Carlsbad, CA) in an ABI PRISM 7900HT sequence detector (Applied Biosystems). The sheep endogenous mRNA expression of matrix metalloproteinase-1 (MMP-1), matrix metalloproteinase-2 (MMP-2), matrix metalloproteinase-9 (MMP-9), matrix metalloproteinase-13 (MMP-13). and plasminogen activator tissue (PLAT) in the TM were investigated. Plasminogen activator inhibitor 1 (PA1-1) mRNA expression was measured in both TM and ciliary processes tissues. Relative quantification of gene expression was performed using the standard curve method. Mean threshold cycle (Ct) of the samples was compared among the groups by using the Ct. of 18S as an internal control. The DCt was calculated as the difference in Ct values derived from the target gene and the 18S gene. The DDCt was calculated as DCt of the normalized assayed genes in the treated samples minus DCt of normalized assayed genes in the naive control samples. Relative expression was calculated by the 2exp DD Ct formula.

Test [3] relates to Mmp-2, Mmp-9, Mmp-13 and Plat mRNA. The experiment in a line: Mmp and Plat expression in protein treated C57BL/6J eyes without steroids (Example 15). The format is in vivo, mouse. The settings on record: non-steroid treated C57BL/6 eyes; group means versus BSA; p>0.05.
A further test relates to Mmp-9KO mice. The test is described as follows: Outflow facility in protein treated Mmp-9KO mouse eyes (Example 16). The format is in vivo. The conditions noted are these: Mmp-9KO eyes, intravitreal; p>0.05 ANOVA. From the text: Animals: 8- to 12-week-old female mice were used for this study. The animals were housed and bred at the State University of New York (SUNY) Downstate Health Sciences University Division of Comparative Medicine (Brooklyn. NY) under a 12-hour light/12-hour dark cycle and food ad libitum. C57BL/6J mice were obtained from The Jackson Laboratories (Bar Harbor, ME, USA). A PlatKO mouse colony was established from animals (stock No. 002508) obtained from The Jackson Laboratories. These animals are on a C57BL/61 background (www.jax.org/strain/002508). AnMmp-9KO mouse colony was established from animals (stock No. 007084) obtained from The Jackson Laboratories. These animals are on a mixed background but have been bred into the C57BL/6J background for five generations (www.jax.org/strain/007084). […]
Outflow facility determination: Mouse eyes were enucleated immediately after euthanasia. Outflow facility was determined using a constant pressure method, as previously described. […] Flow was constantly measured via a microfluidic flow sensor (0.07-1.5 uL/min, MFS1; Elveflow, Paris, France). […] Any eyes that developed visible leaks during outflow facility determination, or that had pressure-flow correlations with R^2<0.9, were excluded from analysis but were used for RNA quantification.

For the substance “tPA: recombinant human tissue plasminogen activator (ACTILYSE; Boehringer Ingelheim), enzymatically active”, the Mmp-2 expression result in test [1] is recorded as “significant upregulation”. For the same substance, in test [2] (sheep, after tPA), the MMP1 expression entry is “up-regulates”, the MMP2 expression entry is listed as “up-regulates”, the MMP9 expression entry was “up-regulates” and the MMP13 expression result is on record as “up-regulates”. For the same substance, in test [2] (trabecular meshwork (TM) and ciliary processes), the PAI-1 expression entry is reported as “up-regulating”. Besides, the “gene expression changes in Mmp-2, Mmp-9, and Mmp-13” value in test [3] was “not significantly different”. For the same substance, in the test on Mmp-9KO mice, the “effect on outflow facility” value is on record as “did not increase outflow facility”.
